Results: ChEMBL document CHEMBL1132080, “Investigation of the S3 site of thrombin: design, synthesis and biological activity of 4-substituted 3-amino-2-pyridones incorporating P1-argininals” (Bioorg Med Chem Lett, 1999)

Assays:
[1] = target: Coagulation factor X (Homo sapiens, UniProt P00742); assay: Concentration required for the in vitro inhibitory activity against human enzyme, Factor Xa cleavage of the chromogenic substrate
[2] = target: Plasminogen (Homo sapiens, UniProt P00747); assay: Concentration required for the in vitro inhibitory activity against human enzyme, Plasmin cleavage of the chromogenic substrate
Plasminogen, sequence (P00747 97-580 limits assumed): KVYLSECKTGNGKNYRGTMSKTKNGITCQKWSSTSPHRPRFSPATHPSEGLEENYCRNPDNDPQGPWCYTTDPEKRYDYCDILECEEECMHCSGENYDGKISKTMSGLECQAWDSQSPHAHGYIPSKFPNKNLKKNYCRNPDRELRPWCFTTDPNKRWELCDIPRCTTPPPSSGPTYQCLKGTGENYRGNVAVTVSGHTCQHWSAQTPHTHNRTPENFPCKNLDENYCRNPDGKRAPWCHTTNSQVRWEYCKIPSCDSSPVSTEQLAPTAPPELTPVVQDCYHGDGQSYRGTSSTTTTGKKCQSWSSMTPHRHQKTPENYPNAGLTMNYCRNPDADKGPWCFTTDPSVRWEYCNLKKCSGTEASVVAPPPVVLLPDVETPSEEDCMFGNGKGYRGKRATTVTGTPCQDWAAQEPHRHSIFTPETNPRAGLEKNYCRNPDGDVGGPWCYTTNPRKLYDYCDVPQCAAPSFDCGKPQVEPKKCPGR
Plasminogen, sequence (P00747 581-810 limits assumed): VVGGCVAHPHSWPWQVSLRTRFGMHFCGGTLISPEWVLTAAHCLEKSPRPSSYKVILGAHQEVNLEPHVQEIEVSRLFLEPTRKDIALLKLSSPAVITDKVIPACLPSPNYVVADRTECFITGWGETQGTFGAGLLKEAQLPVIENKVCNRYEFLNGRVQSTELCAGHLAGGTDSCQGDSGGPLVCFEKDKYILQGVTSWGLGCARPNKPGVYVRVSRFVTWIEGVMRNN

[3] = target: Prothrombin (Homo sapiens, UniProt P00734); assay: Concentration required for the in vitro inhibitory activity against human enzyme, thrombin cleavage of the chromogenic substrate
[4] = target: Serine protease 1 (Homo sapiens, UniProt P07477); assay: Concentration required for the in vitro inhibitory activity against human enzyme, trypsin cleavage of the chromogenic substrate
Serine protease 1, sequence (P07477 whole entry): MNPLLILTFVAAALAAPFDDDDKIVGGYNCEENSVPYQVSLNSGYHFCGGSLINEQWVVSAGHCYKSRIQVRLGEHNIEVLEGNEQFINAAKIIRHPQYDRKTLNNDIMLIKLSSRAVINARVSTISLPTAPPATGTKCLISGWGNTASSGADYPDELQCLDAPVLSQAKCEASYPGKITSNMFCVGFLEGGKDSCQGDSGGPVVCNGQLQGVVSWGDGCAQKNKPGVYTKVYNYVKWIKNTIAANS

Coagulation factor X, sequence (P00742 41-179 limits assumed): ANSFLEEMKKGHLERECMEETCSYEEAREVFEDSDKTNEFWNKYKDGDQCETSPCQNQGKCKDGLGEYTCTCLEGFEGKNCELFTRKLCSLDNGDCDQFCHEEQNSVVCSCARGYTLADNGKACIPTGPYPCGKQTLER
Coagulation factor X, sequence (P00742 235-488 limits assumed): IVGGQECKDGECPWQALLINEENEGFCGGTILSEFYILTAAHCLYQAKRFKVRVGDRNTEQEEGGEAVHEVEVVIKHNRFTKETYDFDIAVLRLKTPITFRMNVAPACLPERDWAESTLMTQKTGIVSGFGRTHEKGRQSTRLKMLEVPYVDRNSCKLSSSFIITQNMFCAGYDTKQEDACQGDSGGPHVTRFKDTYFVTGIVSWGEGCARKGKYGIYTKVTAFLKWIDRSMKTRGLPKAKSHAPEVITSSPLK

Structure (SMILES)	IC50 [1] [nM]	IC50 [2] [nM]	IC50 [3] [nM]	IC50 [4] [nM]
CS(=O)(=O)Nc1c(CCc2ccccc2)ccn(CC(=O)N[C@H]2CCCN(C(=N)N)C2O)c1=O (some centres not stated)	> 2500	> 2500	7.95	135
CC(=O)Nc1c(CCc2ccccc2)ccn(CC(=O)N[C@H]2CCCN(C(=N)N)C2O)c1=O (some centres not stated)	> 2500	> 2500	472	1220
CNS(=O)(=O)Nc1c(CCc2ccccc2)ccn(CC(=O)N[C@H]2CCCN(C(=N)N)C2O)c1=O (some centres not stated)	2500	250	50.5	103
N=C(N)N1CCC[C@H](NC(=O)Cn2ccc(CCc3ccccc3)c(NS(=O)(=O)CC(F)(F)F)c2=O)C1O (some centres not stated)	> 2500	> 2500	194	1220
N=C(N)N1CCC[C@H](NC(=O)Cn2ccc(CCc3ccccc3)c(NS(=O)(=O)c3ccccc3)c2=O)C1O (some centres not stated)	2360	> 2500	89.1	188
CS(=O)(=O)Nc1c(CCCc2ccccc2)ccn(CC(=O)N[C@H]2CCCN(C(=N)N)C2O)c1=O (some centres not stated)	> 2500	> 2500	203	479
N=C(N)N1CCC[C@H](NC(=O)CN2CCCC(NS(=O)(=O)Cc3ccccc3)C2=O)C1O (some centres not stated)	2500	> 2500	6.2	791
CS(=O)(=O)Nc1c(CCC2CCCCC2)ccn(CC(=O)N[C@H]2CCCN(C(=N)N)C2O)c1=O (some centres not stated)	2500	> 2500	256	257
